Test results as given in patent publication US5856325A, “Benzotriazines, pharmaceutical compositions, and methods of using same” (Boehringer Mannheim GmbH, priority 1992, dated 1999).

Assays:
[1] = biological target: T1, human recombinant type II PLA2 (synovial PLA2) (Homo sapiens, UniProt P14555); assay: Inhibition of the human recombinant type II PLA2 (synovial PLA2), in vitro; assay type: biochemical
T1 sequence (P14555 21-144): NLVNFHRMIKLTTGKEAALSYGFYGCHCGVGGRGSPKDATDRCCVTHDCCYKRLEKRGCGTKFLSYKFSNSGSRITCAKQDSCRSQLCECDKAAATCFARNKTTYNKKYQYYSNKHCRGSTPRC
Excerpt: a) Inhibition of the human recombinant type II PLA2) (=synovial PLA2)
As typical respresentative of A PLA2, there was selected for the testing the synovial PLA2 (dissertation of Rainer Muller, 1993; University of Regensburg).
As representative of the compounds I or Ia, respectively, there was investigated in more detail the compound from Example 1. In the following Table, there is given dosage-dependent the percentage in vitro inhibition of PLA2.

[2] = tested on: collagen-induced arachidonic acid (AA) liberation from human thrombocytes; assay: Inhibition of the collagen-induced arachidonic acid (AA) liberation from human thrombocytes (3H-AA); assay type: cell-based
Experimental: b) Inhibition of the collagen-induced arachidonic acid
(AA) liberation from human thrombocytes
As further indicator of a PLA2 inhibition, there is valid an inhibition of the AA liberation from thrombocytes. For this purpose, the thrombocytes are equilibrated with ^3 H-AA. This added radioactive arachidonic acid incorporates into membrane phospholipids. Subsequently, the thrombocytary PLA2 is activated via the collagen receptor and ^3 H-AA thus again liberated from the membrane phospholipids into the medium where it can be measured.

- inhibition at 1 µg/mL ([1]; 1 μg/ml): 43%
- inhibition at 10 µg/mL ([1]; 10 μg/ml): 60%
- inhibition at 100 µg/mL ([1]; 100 μg/ml): 99%
Structure (SMILES): Nc1nc2ccccc2[n+]([O-])n1 [Example 1, 1,2,4-Benzotriazine-3-amine 1-oxide]
- inhibition at 10 µg/mL ([2]; 10 μg/ml, collagen-induced, human thrombocytes): 29%
- inhibition at 100 µg/mL ([2]; 100 μg/ml, collagen-induced, human thrombocytes): 91%
- inhibition of the collagen-induced AA liberation, maximum ([2]; dosage-dependent): up to 91%
